{"source": "patent US10512673B2", "about": "“Use of peptide-based inhibitors of the stat3-IL10 pathway for treating bacterial infection and granulomatous disease” (The United States of America, as Represented by the …, priority 2015, dated 2019)", "key": {"[1]": {"test_system": "Mycobacterium tuberculosis (Erdman strain)", "conditions": "in vivo"}, "[2]": {"test_system": "Mycobacterium tuberculosis (Erdman strain)", "conditions": "in vivo", "remark": "listed apart in the source"}, "[3]": {"test_system": "stat3", "parameters": "species or system C57BL/6 mice", "conditions": "mouse, in vivo"}, "[4]": {"test_system": "Il-10", "parameters": "species or system C57BL/6 mice", "conditions": "mouse, in vivo"}, "[5]": {"test_system": "pSTAT3 (pY705)", "experiment": "ELISA for pSTAT3 in lung homogenates", "assay_type": "in vivo, C57BL/6 mice", "conditions": "after two weeks of treatment (100 μg/dose), vs untreated infected mice", "experimental": "Lung homogenates were screened for pSTAT3 (pY705 (tyrosine 705)) by ELISA following manufacturer's recommendations (Life Technologies). Briefly, the lung homogenates were re-suspended in the cell extraction buffer and incubated during 30 minutes on ice with intermittent vortexing followed by pelleting of the cell debris. Supernatants from each sample were collected and screened for their content of STAT3 (pY705). Standards were prepared using purified recombinant phosphorylated STAT3 protein. Thereafter, 100 μl of standards and diluted samples or control aliquots were distributed into microtiter wells and were incubated in the wells pre-coated with anti-pSTAT3 antibody. The reactions were developed using the detection anti-pSTAT3 antibody followed by 30 minutes incubation at RT with anti-rabbit IgG HRP. The reactions were visualized by incubation with a chromogenic substrate of HRP during 30 minutes at room temperature. The reactions were stopped with 100 μl of stop solution added to each well. Absorbance for each well was read at 450 nm."}, "[6]": {"test_system": "Il-10", "experiment": "Cytometric bead array for IL-10 in lung homogenates", "parameters": "species or system C57BL/6 mice", "conditions": "mouse, in vivo"}, "[7]": {"test_system": "nos2", "experiment": "RT-PCR of nos2 transcript in lungs", "assay_type": "in vivo, C57BL/6 mice", "conditions": "mouse, in vivo"}, "[8]": {"test_system": "arg1", "experiment": "RT-PCR of arg1 transcript in lungs", "assay_type": "in vivo, C57BL/6 mice", "conditions": "mouse, in vivo"}, "[9]": {"test_system": "nos2", "experiment": "NOS2 activity in lung homogenates (Griess reaction)", "assay_type": "in vivo, C57BL/6 mice", "conditions": "100 μg/dose, vs untreated infected mice", "experimental": "(§1) The quantification of end effector molecules and enzymes involved in the host antimicrobial activity in the lungs of mice were performed using lung homogenates obtained as indicated above. Lung homogenate supernatants were used in a Griess reaction (G 7921, Molecular probes, Invitrogen, Eugene, Oreg.), Arginase assay (Bioassay Systems, DARG-200), NADPH (Bioassay Systems, ECNP-100), and lysozyme (Molecular Probes E-22013).\nFor the Griess reaction, reagents were acclimated at room temperature for 20 min prior to the assay. Thereafter, the samples were centrifuged at 1200 rpm for 2 min and the Griess reaction was performed following the manufacturer's instructions. Briefly, samples and prepared standards were diluted following the manufacturer's instructions with distilled sterile water in a 96 well plate. 20 μl of Griess reaction were added to each reaction well. Samples and standards were incubated for 30 minutes in the dark. Thereafter, samples were read using a Biotech Synergy 2 Multi-Mode Micro Plate Reader [U5] spectrophotometer at 546 nm."}, "[10]": {"test_system": "arg1", "experiment": "Arginase activity in lung homogenates", "assay_type": "in vivo, C57BL/6 mice", "conditions": "100 μg/dose, vs untreated infected mice", "experimental": "as §1\nThe level of arginase activity in each lung homogenate was performed using the Quanti-Chrom Arginase Assay Kit (Bio Assay Systems, Hayward, Calif.). Briefly, protein concentration was normalized to 100 μg/ml. As a control, an aliquot of normalized protein was heat-inactivated at 90° C. for 10 min. 40 μl of untreated or heat-inactivated sample was incubated at 37° C. for 60 min with 10 μl of 5× reagent. Thereafter, the reaction was processed as recommended by the manufacturer and analyzed in a plate reader (Bio-Rad, Hercules, Calif.) at an absorbance of 430 nm. The absorbance of the heat-inactivated sample was subtracted from the respective untreated sample and then compared to urea standards. Activity of the arginase was reported in mU/mg of protein."}, "[11]": {"test_system": "NADPH", "experiment": "NADPH assay in lung homogenates", "assay_type": "in vivo, C57BL/6 mice", "conditions": "100 μg/dose, vs untreated infected mice", "experimental": "as §1\nFor the NADPH assay, each lung homogenate was mixed in a 1.5 mL Eppendorf tube with 100 μL NADPH extraction buffer for NADPH determination. Extracts then were heated at 60° C. for 5 min and then 20 μl assay buffer and 100 μl of the opposite extraction buffer were added to neutralize the extracts. Samples were briefly vortexed and centrifuged at 13,000 rpm for 5 min. The resulting supernatant was used for NADPH assays. 40 μl of standards were then transferred into wells of a clear bottom 96-well plate. For each well of the reaction, 80 μL working reagent were added per well quickly. Optical density for time “zero” (OD0) optical density after 30 min incubation (OD30) at room temperature were read at 565 nm (520-600 nm)."}, "[12]": {"test_system": "lysozyme", "experiment": "Lysozyme assay in lung homogenates", "assay_type": "in vivo, C57BL/6 mice", "conditions": "100 μg/dose, vs untreated infected mice", "experimental": "as §1\nThe Lysozyme assay was performed as per manufacturer's instructions. Briefly, experimental samples were first diluted in 1× reaction buffer. A volume of 50 μl was used for each reaction. Then, 50 μl of the 50 μg/ml DQ lysozyme substrate were added to each microplate well containing the experimental or the standard curve samples. The reaction mix was then incubated at 37° C. for 30 min protected from light. The fluorescence in each of the samples was measured at absorption maxima at ˜494 nm and fluorescence emission maxima at ˜518 nm."}, "[13]": {"test_system": "TNFα", "experiment": "Cytometric bead array for TNFα in lung homogenates", "assay_type": "in vivo, C57BL/6 mice", "conditions": "CBA, 100 μg/dose, vs control mice"}, "[14]": {"test_system": "IFNγ", "experiment": "Cytometric bead array for IFNγ in lung homogenates", "assay_type": "in vivo, C57BL/6 mice", "conditions": "CBA, 100 μg/dose, vs control mice"}, "[15]": {"test_system": "IL-12p40", "experiment": "Cytometric bead array for IL-12p40 in lung homogenates", "assay_type": "in vivo, C57BL/6 mice", "conditions": "CBA, 100 μg/dose, vs control mice"}, "[16]": {"test_system": "IL-6", "experiment": "Cytometric bead array for IL-6 in lung homogenates", "assay_type": "in vivo, C57BL/6 mice", "conditions": "CBA, 100 μg/dose, vs control mice"}, "[17]": {"test_system": "granuloma lesions in the lungs", "experiment": "Lung histopathology (H&E)", "parameters": "species or system C57BL/6 mice", "conditions": "mouse, in vivo"}, "[18]": {"test_system": "pSTAT3", "experiment": "Immunohistochemistry for pSTAT3 in lung tissue sections", "parameters": "species or system C57BL/6 mice", "conditions": "mouse, in vivo"}, "[19]": {"test_system": "bcl-2", "experiment": "qRT-PCR of bcl-2 transcript in lungs", "assay_type": "in vivo, C57BL/6 mice", "conditions": "100 μg/dose", "experimental": "(§2) The upper right lobe of the lungs from each mouse were homogenized in Trizol (Invitrogen) using Next Advance bullet blender (Averill Park, N.Y.) and frozen at −80° C. immediately. RNA was extracted following the manufacturer's protocol. Trizol DNA was digested with RQ1 RNase-free DNase (Promega, Madison, Wis.) and RNA was re-isolated using Trizol. Finally, the concentration of RNA in each sample was measured by spectrophotometry and the RNA was reverse transcribed with M-Mulv (New England Bio Labs, Ipswich, Mass.) and random hexamers (Roche, Basel, Switzerland).\n(§3) When lung homogenates from each mouse were used to determine the levels of expression of Bcl-2 and Atg-5 protein using ELISA, the results were similar to those obtained by qRT-PCR."}, "[20]": {"test_system": "bax", "experiment": "qRT-PCR of bax transcript in lungs", "assay_type": "in vivo, C57BL/6 mice", "conditions": "100 μg/dose", "experimental": "as §2, §3"}, "[21]": {"test_system": "atg5", "experiment": "qRT-PCR of atg5 transcript in lungs", "assay_type": "in vivo, C57BL/6 mice", "conditions": "100 μg/dose", "experimental": "as §2, §3"}, "[22]": {"test_system": "beclin-1", "experiment": "qRT-PCR of beclin-1 transcript in lungs", "assay_type": "in vivo, C57BL/6 mice", "conditions": "100 μg/dose", "experimental": "as §2, §3"}, "[23]": {"test_system": "bcl-2", "experiment": "ELISA for Bcl-2 protein in lung homogenates", "assay_type": "in vivo, C57BL/6 mice", "conditions": "100 μg/dose, vs untreated infected mice", "text": "as §3"}, "[24]": {"conditions": "mouse, in vivo"}}, "data": [{"sequence": "LDTRYLEQLHKLY [ST3-H2A2]", "values": [{"measurement": "reduction of pulmonary CFU", "setting": "[1]", "value": 0.6, "unit": "log10"}, {"measurement": "reduction of pulmonary bacterial load", "setting": "[1]", "value": 1.7, "unit": "log10 CFU"}, {"measurement": "reduction of splenic bacilli load", "setting": "[2]", "value": 0.9, "unit": "log10CFU"}, {"measurement": "pulmonary expression of stat3 transcript", "setting": "[3]", "value": "no significant changes"}, {"measurement": "pulmonary expression of il-10 transcript", "setting": "[4]", "value": "increased levels of expression"}, {"measurement": "level of pSTAT3 in lung homogenates", "setting": "[5]", "value": "little change"}, {"measurement": "level of IL-10 in lung homogenates", "setting": "[6]", "value": "little change"}, {"measurement": "mRNA nos2 expression (in words)", "setting": "[7]", "value": "increased more significantly"}, {"measurement": "mRNA arg1 expression (in words)", "setting": "[8]", "value": "decreased expression"}, {"measurement": "NOS2 activity (concentration of NO)", "setting": "[9]", "value": "significantly elevated"}, {"measurement": "Arg1 activity", "setting": "[10]", "value": "reduced or not changed"}, {"measurement": "NADPH activity (pyridine nucleotide)", "setting": "[11]", "value": "significantly elevated"}, {"measurement": "lysozyme activity (DQ substrate)", "setting": "[12]", "value": "significantly elevated"}, {"measurement": "level of TNFα in the lungs", "setting": "[13]", "value": "reduced"}, {"measurement": "level of IFNγ expression in the lungs", "setting": "[14]", "value": "decreased and down"}, {"measurement": "expression level of IL-12p40 in the lungs", "setting": "[15]", "value": "increased and up"}, {"measurement": "expression level of IL-6 in the lungs", "setting": "[16]", "value": "increased"}, {"measurement": "histopathology of H&E stained lung sections", "setting": "[17]", "value": "increased numbers of clusters and highly packed lymphocytes"}, {"measurement": "pSTAT3 staining by IHC in lung tissue sections", "setting": "[18]", "value": "reduced levels of pSTAT3 staining in the center of the granuloma lesions"}, {"measurement": "increase in expression of bcl-2 transcript", "setting": "[19]", "value": "> 3", "unit": "fold"}, {"measurement": "increase in expression of bax transcript", "setting": "[20]", "value": "> 3", "unit": "fold"}, {"measurement": "increase in expression of atg5 transcript", "setting": "[21]", "value": "> 3", "unit": "fold"}, {"measurement": "increase in expression of beclin-1 transcript", "setting": "[22]", "value": "> 3", "unit": "fold"}, {"measurement": "level of Bcl-2 protein in lung homogenates", "setting": "[23]", "value": "significantly increased"}, {"measurement": "adverse effects during treatment (body weight)", "setting": "[24]", "value": "mild weight loss"}]}]}
